Measurements: publication PMC8355692, “Antimelanoma activities of chimeric thiazole–androstenone derivatives” (Royal Society Open Science, 2021)

How the values were obtained:
Format in all cases: cell-based
[1] = test system: LOX IMVI; test: NCI DTP 60 cell line five-concentration test, melanoma panel; settings: for LC50 (50% lethal concentration) / GI50: Homo sapiens; for LC50 (50% lethal concentration): LOX IMVI, read-out: LC50 (50% lethal concentration); for GI50 / TGI (total growth inhibition): LOX IMVI melanoma cell line
Description: (§1) In our effort to develop new methodologies to synthesize bioactive compounds [11–14], we have synthesized a number of thiazole and thiazolo-androstenone derivatives. We submitted 50 of the synthesized thiazole–androstenone derivatives to the National Cancer Institute (NCI) Development Therapeutics Program (DTP) to test against 60 cancer cell lines (https://dtp.cancer.gov/). These compounds were tested for cytotoxicity at a single dose of 10 µM. […] Eight of these chimeric compounds (figure 2) were selected for further testing at five different concentrations to determine 50% growth inhibition (GI50), total growth inhibition (TGI) and 50% lethal concentration (LC50) values. […] Overall, amino-thiazole derivatives (table 1, 1–7) were more toxic to melanoma cell lines than phenyl thiazole derivatives (8). Fluoro and oxy (hydroxy and methoxy) derivatives were the potent growth inhibitors of the tested cancer cell lines. LOX IMVI cell line was the most susceptible among all the melanoma cell lines used against the tested compounds (table 1). […] Phenyl ethyl derivative (1) inhibited the growth of all the cell lines except SK-MEL-2. […] 2,4-Dimethyl substituted derivative (7) is a potent growth inhibitor of all the tested cell lines of the melanoma panel.

[2] = test system: M14; test: as above; settings: for CC50: M14, read-out: LC50 (50% lethal concentration)
Description: as §1

[3] = test system: MALME-3M; test: as above; settings: for CC50 / GI50: Homo sapiens; for CC50: Malme-3M, read-out: LC50 (50% lethal concentration); for GI50 / TGI (total growth inhibition): MALME-3M melanoma cell line
Description: as §1

[4] = test system: MDA-MB-435; test: as above; settings: for CC50 / GI50: Homo sapiens; for CC50: MDA-MB-435, read-out: LC50 (50% lethal concentration); for GI50 / TGI (total growth inhibition): MDA-MB-435 melanoma cell line
Description: as §1

[5] = test system: SK-MEL-28; test: as above; settings: for CC50: SK-MEL-28, read-out: LC50 (50% lethal concentration)
Description: as §1

[6] = test system: SK-MEL-2; test: as above; settings: for LC50 (50% lethal concentration) / GI50: Homo sapiens; for LC50 (50% lethal concentration): SK-MEL-2, read-out: LC50 (50% lethal concentration); for GI50 / TGI (total growth inhibition): SK-MEL-2 melanoma cell line
Description: as §1

[7] = test system: SK-MEL-5; test: as above; settings: for CC50 / GI50: Homo sapiens; for CC50: SK-MEL-5, read-out: LC50 (50% lethal concentration); for GI50 / TGI (total growth inhibition): SK-MEL-5 melanoma cell line
Description: as §1

[8] = test system: UACC-257; test: as above; settings: for CC50 / GI50: Homo sapiens; for CC50: UACC-257, read-out: LC50 (50% lethal concentration); for GI50 / TGI (total growth inhibition): UACC-257 melanoma cell line
Description: as §1

[9] = test system: UACC-62; test: as above; settings: for LC50 (50% lethal concentration): UACC-62, read-out: LC50 (50% lethal concentration)
Description: as §1

[10] = test system: HFF-1 cell line; test: Toxicity for normal human foreskin fibroblast cell line; settings: normal human foreskin fibroblast HFF-1; for IC50: read-out: IC50 against HFF1 cell line
Excerpt: To assess the potential use of lead compounds as anti-melanoma agents, we tested their toxicity for the normal human foreskin fibroblast (HFF-1) cell line taking into consideration that MM is usually surrounded by the cells of this kind. The effects of some of the potent compounds on this cell line were very encouraging (table 4).

[11] = test system: heme oxygenase-1 (HO1); test: HO1 immunocytochemistry combined with TUNEL (oxidative injury); settings: melanoma cells, 24 h; for HO1 mean intensity (oxidative injury): 10 µM; for HO1 staining in TUNEL-positive cells (oxidative injury): 5 or 10 µM
Excerpt: (§2) The elevation was dose-dependent.
(§3) Figure 4. […] (c) Representative images. […] Mean ± s.e.m., n = 4 per group.
(§4) Figure 5. […] (a) Representative images of TUNEL colocalized or not colocalized with each of the three protein markers used in this study. […] Mean ± s.e.m., n = 4 per group.
(§5) Thus, to determine the mechanism of action of our compounds on melanoma cells in vitro, we applied the fluorescent TUNEL assay combined with quantitative ICC for three markers: HO1 for oxidative cell injury, CAD for caspase-mediated apoptosis and EndoG for caspase-independent apoptosis. […] However, none of the compounds or dacarbazine induced apoptotic endonucleases. This is not surprising because apoptotic endonucleases are commonly present in the cell in sufficient amounts to be able to destroy DNA upon cell death without induction (which most likely would not be possible in a dead cell).

[12] = test system: caspase-activated DNase (CAD); test: CAD immunocytochemistry combined with TUNEL (caspase-mediated apoptosis); settings: melanoma cells, 5 or 10 µM, 24 h
Excerpt: as §2, §3, §4, §5

[13] = test system: endonuclease G (EndoG); test: EndoG immunocytochemistry combined with TUNEL (caspase-independent apoptosis); settings: melanoma cells, 5 or 10 µM, 24 h
Excerpt: as §2, §3, §4, §5

[14] = test system: SK-MEL-28 cell line; test: Annexin V flow cytometry apoptosis assay
Description: After determining the selective toxicity of potent molecules, we determined their mode of action against the melanoma cell line. Apoptosis or programmed cell death is a physiological process to remove unwanted or damaged mammalian cells. We detected apoptosis mode of cell death by our potent compounds using flow cytometry-based Annexin V assay. Compound 3 caused 23% apoptosis at 6 µM and 54% apoptosis at 12 µM (figure 3). 3-Fluorophenyl derivative (5) was a very potent apoptosis-inducing agent that caused 100% cell death at 12 µM concentration. Dacarbazine, the positive control, caused 22% apoptotic cell death at 200 µM concentration.
Figure 3. Apoptosis measurements using Annexin V flow cytometry assay of compounds 3 and 5 against SK-MEL-28 cell line at 6 and 12 µM concentrations. DMSO and dacarbazine (Daca) are negative and positive controls, respectively. Mean ± s.e.m., n = 3 per group.

[15] = Homo sapiens, M14, M14 melanoma cell line
[16] = Homo sapiens, SK-MEL-28, SK-MEL-28 melanoma cell line
[17] = Homo sapiens, UACC-62, UACC-62 melanoma cell line

SMILES	LC50 (50% lethal concentration) [1] [µM]	GI50 [1] [µM]	TGI (total growth inhibition) [1] [µM]	GI50 [2, 15] [µM]	CC50 ([2]; Homo sapiens) [µM]	TGI (total growth inhibition) ([2]; M14 melanoma cell line) [µM]	CC50 [3] [µM]	GI50 [3] [µM]	TGI (total growth inhibition) [3] [µM]	CC50 [4] [µM]	GI50 [4] [µM]	TGI (total growth inhibition) [4] [µM]	GI50 [5, 16] [µM]	CC50 ([5]; Homo sapiens) [µM]	TGI (total growth inhibition) ([5]; SK-MEL-28 melanoma cell line) [µM]	LC50 (50% lethal concentration) [6] [µM]	GI50 [6] [µM]	TGI (total growth inhibition) [6] [µM]	CC50 [7] [µM]	GI50 [7] [µM]	further results
Cc1ccc(Nc2nc3c(s2)C2=CC[C@@H]4[C@H](CC[C@]5(C)C(=O)CC[C@@H]45)[C@@]2(C)CC3)c(C)c1 [Compound 7]	5.96	1.64	3.13	1.85	> 100	3.79	> 100	1.99	5.55	> 100	3.02	>100	2.31	> 100	6.08	22.7	2.19	4.74	7.47	1.86	TGI (total growth inhibition) [7]: 3.73 µM; CC50 [8]: > 100 µM; GI50 [8]: 3.7 µM; GI50 [9, 17]: 1.72 µM; LC50 (50% lethal concentration) ([9]; Homo sapiens): 9.02 µM; TGI (total growth inhibition) ([9]; UACC-62 melanoma cell line): 3.94 µM; IC50 [10]: 40 µM
C[C@]12CCc3nc(Nc4cccc(O)c4)sc3C1=CC[C@@H]1[C@@H]2CC[C@]2(C)C(=O)CC[C@@H]12 [Compound 4]	5.94	1.67	3.15	2.97	> 100	>100	> 100	1.49	3.01	> 100	2.53	>100	≥ 1.32	> 100	3.31	91.4	2.86	9.99	> 100	5.7	GI50 ([5]; SK-MEL-28 melanoma cell line): 1.32 µM; TGI (total growth inhibition) [7]: >100 µM; CC50 [8]: > 100 µM; GI50 [8]: 3.69 µM; TGI (total growth inhibition) [8]: >100 µM; GI50 [9, 17]: 2.08 µM; LC50 (50% lethal concentration) ([9]; Homo sapiens): > 100 µM; TGI (total growth inhibition) ([9]; UACC-62 melanoma cell line): 5.25 µM; IC50 [10]: 8.6 µM; HO1 mean intensity (oxidative injury) [11]: induced oxidative injury; CAD mean intensity [12]: No significant induction; colocalization of CAD with TUNEL (caspase-mediated apoptosis) [12]: induced the colocalization of CAD with TUNEL; EndoG mean intensity [13]: No significant induction
C[C@]12CCc3nc(Nc4ccc(OC(F)(F)F)cc4)sc3C1=CC[C@@H]1[C@@H]2CC[C@]2(C)C(=O)CC[C@@H]12 [Compound 3]	5.82	1.74	3.18	3.29	46.6	8.72	84.5	3.45	16.8	44.2	2.72	10.1	≥ 1.32	49.2	7.98	55.6	3	11.6	41.4	2.62	GI50 ([5]; SK-MEL-28 melanoma cell line): 1.88 µM; TGI (total growth inhibition) [7]: 7.41 µM; CC50 [8]: > 100 µM; GI50 [8]: 4.89 µM; TGI (total growth inhibition) [8]: 28.8 µM; GI50 [9, 17]: 3.03 µM; LC50 (50% lethal concentration) ([9]; Homo sapiens): > 100 µM; TGI (total growth inhibition) ([9]; UACC-62 melanoma cell line): 10.3 µM; toxicity against HFF1 cells (in words) [10]: did not show any notable toxicity; IC50 [10]: > 100 µM; apoptosis ([14]; SK-MEL-28, 6 µM): 23%; apoptosis ([14]; SK-MEL-28, 12 µM): 54%; HO1 staining in TUNEL-positive cells (oxidative injury) [11]: strongly induced oxidative injury; CAD mean intensity [12]: No significant induction; colocalization of CAD with TUNEL (caspase-mediated apoptosis) [12]: induced the colocalization of CAD with TUNEL; EndoG mean intensity [13]: No significant induction
C[C@]12CCc3nc(Nc4cccc(F)c4)sc3C1=CC[C@@H]1[C@@H]2CC[C@]2(C)C(=O)CC[C@@H]12 [Compound 5]	6.16	1.67	3.21	2.36	81.4	7.23	26.7	1.94	5.04	> 100	2.74	13.1	≥ 1.32	19.9	4.27	26.7	1.86	5.19	9.24	2.02	GI50 ([5]; SK-MEL-28 melanoma cell line): 1.52 µM; TGI (total growth inhibition) [7]: 4.32 µM; CC50 [8]: > 100 µM; GI50 [8]: 5.47 µM; TGI (total growth inhibition) [8]: 64 µM; GI50 [9, 17]: 1.54 µM; LC50 (50% lethal concentration) ([9]; Homo sapiens): 6.31 µM; TGI (total growth inhibition) ([9]; UACC-62 melanoma cell line): 3.12 µM; toxicity against HFF1 cells (in words) [10]: somewhat toxic; IC50 [10]: 5.9 µM; apoptosis ([14]; SK-MEL-28, 12 µM): 100%; HO1 mean intensity (oxidative injury) [11]: induced oxidative injury; HO1 staining in TUNEL-positive cells (oxidative injury) [11]: strongly induced oxidative injury; CAD mean intensity [12]: No significant induction; colocalization of CAD with TUNEL (caspase-mediated apoptosis) [12]: induced the colocalization of CAD with TUNEL; EndoG mean intensity [13]: No significant induction
C[C@]12CCc3nc(Nc4ccccc4)sc3C1=CC[C@@H]1[C@@H]2CC[C@]2(C)C(=O)CC[C@@H]12 [Compound 2]	48.1	3.22	10.8	< 10	> 100	50.9	> 100	21.2	>100	> 100	3.49	>100	20.5	> 100	>100	> 100	17.1	60.8	66.2	10.2	GI50 ([2]; M14 melanoma cell line): 7.88 µM; TGI (total growth inhibition) [7]: 26.0 µM; CC50 [8]: > 100 µM; GI50 [8]: 23.8 µM; TGI (total growth inhibition) [8]: 94.5 µM; GI50 [9, 17]: < 10 µM; LC50 (50% lethal concentration) ([9]; Homo sapiens): 89.7 µM; GI50 ([9]; UACC-62 melanoma cell line): 9.54 µM; TGI (total growth inhibition) ([9]; UACC-62 melanoma cell line): 29.6 µM; IC50 [10]: 21 µM
